Source: patent publication US11000491B2, “Amino-aryl-benzamide compounds and methods of use thereof” (HEPANOVA, INC., priority 2017, dated 2021)
Like-named read-outs stand apart in the source and are kept apart here.

Legend:
Assay type in all cases: cell-based
Huh7 cells = test: LD content in Huh7 cells pre-treated with insulin, Oil-Red-O staining, absorbance OD 540 nm; settings: procedure of Example 3, read-out: LD content inhibition (EC50)
Procedure: FIG. 6. […] Spectrophotometric absorbance of untreated or HPN-01-treated Huh7 cells pre-incubated with 1 mM insulin is shown. LD contents were stained using Oil Red O, and measured by determining spectrophotometer absorbance under OD 540 nm.
Huh7 cells were mock treated or pre-treated with 1 mM insulin, and subsequently treated with indicated amounted of HPN-01.
The ability of each HPN-01 derivative obtained from the synthesis methods described above, to inhibit LD formation in hepatocytes, was tested using the procedure outlined in Example 3. The results of this analysis are shown below in Table 6 (second column).

SREBP-1 = SREBP-1 expression in cultured primary human hepatocytes; settings: procedure of Example 6, read-out: SREBP-1 mRNA inhibition (EC50)
Procedure: (§1) FIG. 9. Effects of HPN-01 on the expression of SREBP-1 (master regulator of hepatic glucose metabolism and fatty acid synthesis) and SREBP-2 (master regulator of cholesterol homeostasis in cells) in cultured primary human hepatocytes.
(§2) Cultured primary human hepatocytes were treated with various concentrations of HPN-01, and the expression levels of SREBP-1 (master regulator of hepatic glucose metabolism and fatty acid synthesis) and SREBP-2 (master regulator of cholesterol homeostasis in cells) were subsequently determined.
(§3) The ability of each HPN-01 derivative obtained from the synthesis methods described above, to inhibit SREBP-1 and SREBP-2 mRNA expression in primary hepatocytes, was tested using the procedure outlined in Example 6. The results of this analysis are shown in Table 6 (third and fourth columns).

SREBP-2 = SREBP-2 expression in cultured primary human hepatocytes; settings: procedure of Example 6, read-out: SREBP-2 mRNA inhibition (EC50)
Procedure: as §1, §2, §3

[1] = Homo sapiens, Huh-7, Huh7 cells

Molecule	EC50 (Huh7 cells; Huh7 cells)	EC50 (SREBP-1)	EC50 (SREBP-2)	EC50 (Huh7 cells; [1])	EC50 (SREBP-1; Homo sapiens, Hepatocyte)	EC50 (SREBP-2; Homo sapiens, Hepatocyte)
2-amino-5-((3-chlorophenyl)ethynyl)-4′-sulfamoyl-[1,1′-biphenyl]-3-carboxamide [HPN-01206]	0.9 µM	1.68 µM	1.07 µM			
2-amino-5-((4-fluorophenyl)ethynyl)-4′-sulfamoylbiphenyl-3-carboxamide [HPN-01203]	0.55 µM	1.7 µM	2.1 µM			
4-(4′-amino-4-bromo-4″-sulfamoyl-[1,1′:3′,1″-terphenyl]-5′-yl)piperazine-1-carboxamide [HPN-01624]	1.3 µM	7.54 µM	13.5 µM			
4′-(2-aminoacetamido)-4-chloro-4″-ureido-[1, 1′:3′,1″-terphenyl]-5′-carboxamide [HPN-01518]	1.11 µM	2.92 µM	4.86 µM			
4′-acetamido-4-chloro-4″-ureido-[1,1′:3′,1″-terphenyl]-5′-carboxamide [HPN-01505]	0.59 µM	1.36 µM	2.41 µM			
4′-butyramido-4-chloro-4″-sulfamoyl-[1,1′:3′,1″-terphenyl]-5′-carboxamide [HPN-01515]	0.48 µM	0.95 µM	1.32 µM			
NC(=O)c1cc(/C=C/c2cccc(Cl)c2)cc(-c2ccc(S(N)(=O)=O)cc2)c1N [HPN-01102, (E)-2-amino-5-(3-chlorostyryl)-4′-sulfamoyl-[1,1′-biphenyl]-3-carboxamide]				0.46 µM	1.61 µM	3.37 µM
NC(=O)c1cc(/C=C/c2cccc(Br)c2)cc(-c2ccc(S(N)(=O)=O)cc2)c1N [HPN-01103, (E)-2-amino-5-(3-bromostyryl)-4′-sulfamoyl-[1,1′-biphenyl]-3-carboxamide]				0.99 µM	2.14 µM	3.08 µM
NC(=O)c1cc(/C=C/c2cccc(F)c2)cc(-c2ccc(S(N)(=O)=O)cc2)c1N [HPN-01104, (E)-2-amino-5-(3-fluorostyryl)-4′-sulfamoyl-[1,1′-biphenyl]-3-carboxamide]				0.67 µM	2.08 µM	3.26 µM
CC(=O)Oc1ccc(/C=C/c2cc(C(N)=O)c(N)c(-c3ccc(S(N)(=O)=O)cc3)c2)cc1 [HPN-01105, (E)-4-(2-(6-amino-5-carbamoyl-4′-sulfamoyl-[1,1′-biphenyl]-3-yl)vinyl)phenyl acetate]				1.09 µM	3.24 µM	5.26 µM
CC(=O)Nc1ccc(/C=C/c2cc(C(N)=O)c(N)c(-c3ccc(S(N)(=O)=O)cc3)c2)cc1 [HPN-01106, (E)-5-(4-acetamidostyryl)-2-amino-4′-sulfamoyl-[1,1′-biphenyl]-3-carboxamide]				2.85 µM	6.35 µM	6.45 µM
NC(=O)c1cc(/C=C/c2ccc(Cl)cc2)cc(-c2ccc(S(N)(=O)=O)cc2)c1N [HPN-01107, (E)-2-amino-5-(4-chlorostyryl)-4′-sulfamoyl-[1,1′-biphenyl]-3-carboxamide]				1.17 µM	5.66 µM	7.37 µM
NC(=O)c1cc(/C=C/c2ccccc2Cl)cc(-c2ccc(S(N)(=O)=O)cc2)c1N [HPN-01108, (E)-2-amino-5-(2-chlorostyryl)-4′-sulfamoyl-[1,1′-biphenyl]-3-carboxamide]				0.55 µM	2.59 µM	4.67 µM
NC(=O)c1cc(/C=C/c2ccc(Br)cc2)cc(-c2ccc(S(N)(=O)=O)cc2)c1N [HPN-01109, (E)-2-amino-5-(4-bromostyryl)-4′-sulfamoyl-[1,1′-biphenyl]-3-carboxamide]				1.37 µM	2.71 µM	4.46 µM
CC(=O)Oc1cccc(/C=C/c2cc(C(N)=O)c(N)c(-c3ccc(S(N)(=O)=O)cc3)c2)c1 [HPN-01110, (E)-3-(2-(6-amino-5-carbamoyl-4′-sulfamoyl-[1,1′-biphenyl]-3-yl)vinyl)phenyl acetate]				0.81 µM	2.26 µM	3.6 µM
